Article PMC4440816, “Positron Emission Tomography studies with [^11C]PBR28 in the Healthy Rodent Brain: Validating SUV as an Outcome Measure of Neuroinflammation” (PLoS ONE, 2015)
Values joined by “and” are separate entries in the source; they are usually repeats but may differ in a detail not shown here. Identical values can stand only once. Values belong to the molecule of their own block, whether it stands above or below them.

What was measured:
[1] = Arterial blood and plasma radioactivity (gamma counter); format: in vivo, Wistar rats; settings: rats; for plasma/blood ratio of radioactivity: average
Experimental: (§1) Arterial blood sampling was performed during the PET scan in the first group of four rats. In addition to the insertion of the cannula in the tail vein, another cannula was inserted into the femoral artery. For the rats, sixteen arterial blood samples of 0.1 ml were taken for measurement of radioactivity in plasma and blood using a gamma counter. Four samples of 0.5 ml blood were taken for radiometabolite analysis at 4, 20, 40 and 60 minutes after injection.

[2] = molecular target: T1, 18 kD Translocator protein (TSPO) (Mus musculus, UniProt P50637); test: Small animal PET brain uptake (SUV) and test-retest, mice; format: in vivo, C57BL/6J mice; settings: for ICC of SUV / TRV of SUV: Mice, SUV 57–63 min, 7-day interval
T1 construct: from tissue; host or cells: brain of living healthy male C57BL/6J mice (in vivo PET)
Experimental: (§2) The study was divided in two parts. In the first part arterial sampling was performed in four rats to allow for quantification of [^11C]PBR28 binding and comparison with the SUV. In the second part four rats and four mice were used to determine the test-retest variability of the SUV, with a 7-day interval between the scans.
(§3) The animals were anesthetized with isoflurane (induction 4–5% mixed with oxygen and maintenance 1.5–2% mixed with air/oxygen (50/50)) at a flow rate of 1 L/min and a cannula was inserted into the tail vein for the injection of [^11C]PBR28. After the cannulation, the rats were positioned into the nanoScan PET/MRI or nanoScan PET/CT (Mediso Ltd., Budapest, Hungary) in a transaxial position with their heads in the centre of the field of view. A bolus injection of [^11C]PBR28 was given via the canula in the tail vein at start of the PET measurement. The injection was followed by a saline flush. An emission scan of 63 minutes was acquired for all animals. The average injected radioactivity was 23 ± 5 MBq for the rats and 9.9 ± 1.6 MBq for the mice. The injected mass was 0.05 ± 0.03 μg (n = 8) in rats and 0.011 ± 0.011 μg (n = 8) in mice.
(§4) The PET data was acquired in list mode and was reconstructed into 25 timeframes (4x10 s, 4x20 s, 4x60 s, 7x180 s, 6x360 s) with MLEM reconstruction (20 iterations). Image data were not corrected for attenuation or scatter. For each animal a T1-weighted MRI scan (Isotropic FSE sequence, TR/TE: 2000/84.1) was made for anatomical reference.
(§5) The reconstructed dynamic PET measurements were manually aligned with the corresponding MRI scans. The MRI and PET scans were then normalized to the rat or mice brain MRI template available in PMOD (PMOD 3.2 Zurich, Switzerland). Eight regions of interest were defined using the available template in PMOD, i.e. the striatum, hippocampus, hypothalamus, midbrain, thalamus, cerebral cortex, brainstem and cerebellum. Time-activity curves were generated for each region of interest. For all animals the regional brain uptake values were expressed as SUV and were calculated for 57–63 minute after injection, i.e. the last time-frame. The time used for calculating the SUV was based on the tissue-to-plasma ratio obtained from the first part of the study. From 15–50 minutes the tissue-to-plasma ratio is declining, and the estimated equilibrium state is reached at 50–60 minutes after injection. However, it can be beneficial for future studies to use a shorter scan time, i.e. to allow for scanning of more animals per batch of [^11C]PBR28 and to improve counting statistics. The SUV was therefore also calculated for the time-frame of 39–45 minute after injection, In both cases the SUV was calculated according to Eq 1, and it was assumed that 1 cm^3 of brain tissue equals 1 g.
(§6) SUV=tissue activity concentration(Bq/cm3)/injected dose(Bq)/body weight(g) (1)
(§7) For the test-retest study the test-retest variability was calculated using Eq 2.
(§8) TRV=|test value−retest value|/(test value+retest value)/2*100 (2)
(§9) Additionally the […] correlation coefficient (ICC) was calculated as an index of the reliability of the test-retest measurement using Eq 3, where MS = mean sum of squares, BS = between-subjects, WS = within-subjects, and df = degrees of freedom. It combines the information of the difference between and within the test and retest scan. The ICC values were interpreted as follows: 0–0.2 indicated slight agreement, 0.3–0.4 indicated fair agreement, 0.5–0.6 indicated moderate agreement, 0.7–0.8 indicated substantial agreement, and >0.8 indicated almost perfect agreement between the test and retest measures.
(§10) ICC=MSBS−MSWS/MSBS+(dfWS*MSWS) (3)

[3] = Radiometabolite analysis of plasma by radio-HPLC; format: in vivo, Wistar rats
Experimental: as §1
To determine the percentages of radioactivity in plasma that corresponded to unchanged [^11C]PBR28 and its radioactive metabolites, reversed-phase HPLC was used. Plasma obtained after centrifugation of 0.5 ml blood at 2,000 g for 2–4 min was mixed with acetonitrile (0.35 ml) and centrifuged for 4 min. The acetonitrile extraction ratio was 93.5% ± 1.8% at 4 min, 87.8% ± 0.5% at 20 min, 85.2% ± 1.1% at 40 min and 78.9% ± 2.4% at 60 min. The supernatant was mixed with 2 ml of water and analysed using radio-HPLC. The radio-HPLC system used consisted of an interface module (D-7000; Hitachi: Tokyo, Japan), a L-7100 pump (Hitachi), an injector (model 7125, with a 5.0-mL loop; Rheodyne: Cotati, USA) equipped with a μ-Bondapak C18 column (300 x 7.8 mm, […]; Waters: New England, USA), and an ultraviolet absorption detector (L-7400, 254 nm; Hitachi) in series with a 150TR; Packard (housed in a shield of 50 mm thick lead) equipped with a 550 μL flow cell. Acetonitrile (A) and ammonium formate (100 mM) (B) were used as the mobile phase at 6.0 mL/min, according to the following gradient: 0–4 min (A/B), 40:60 → 80:20 v/v; 4.1–6 min(A/B), 80:20 v/v; 8 min (A/B), 40:60 v/v. Peaks for radioactive compounds eluting from the column were integrated and their areas were expressed as a percentage of the sum of the areas of all detected radioactive compounds (decay-corrected to the time of injection on the HPLC).

[4] = molecular target: T2, 18 kD Translocator protein (TSPO) (Rattus norvegicus, UniProt P16257); test: Small animal PET brain uptake (SUV) and test-retest, rats; format: in vivo, Wistar rats; settings: for ICC of SUV / TRV of SUV: Rats, SUV 57–63 min, 7-day interval
T2 construct: from tissue; host or cells: brain of living healthy male Wistar rats (in vivo PET)
Experimental: as §2, §3, §4, §5, §6, §7, §8, §9, §10

TSPO = settings: cited from earlier work
[5] = molecular target: T2, 18 kD Translocator protein (TSPO); test: Dynamic PET with arterial sampling; VT by 2-TCM and Logan graphical analysis, compared with SUV; format: in vivo, Wistar rats; settings: for VT 2-TCM / VT Logan: n = 3; for VT Logan: t* = 21 min
Experimental: as §2, §3, §4, §1, §5, §6
For the first groups, the arterial samples and percentage of metabolites were used to determine the metabolite corrected plasma-input function. Two-tissue compartment modelling (2-TCM) and Logan graphical analysis were used to calculate the volume of distribution (VT), using the metabolite corrected plasma curve as input. For the Logan analysis data was fitted from 21 minutes after injection (t* = 21 min).

[6] = rats, 4 minutes after injection
[7] = rats, eight brain regions, SUV 57–63 min

plasma/blood ratio of radioactivity ([1]; 20 seconds after injection): 0.2
plasma/blood ratio of radioactivity ([1]; 60 minutes after injection): 1.0
time of peak uptake in blood and plasma after injection ([1]; arterial samples): around 20 seconds
ICC of SUV ([2]; Brainstem): 0.31
TRV of SUV ([2]; Brainstem): 13.2
ICC of SUV ([2]; Cerebellum): 0.29
TRV of SUV ([2]; Cerebellum): 13.7
TRV of SUV ([2]; Cerebral cortex): 13.4
ICC of SUV ([2]; Hippocampus): 0.32
TRV of SUV ([2]; Hippocampus): 6.9 ± 4.7 and 6.9
ICC of SUV ([2]; Hypothalamus): 0.01
TRV of SUV ([2]; Hypothalamus): 23.0
ICC of SUV ([2]; Midbrain): 0.02
TRV of SUV ([2]; Midbrain): 15.1
TRV of SUV ([2]; Striatum): 23.6 ± 15.6 and 23.6
ICC of SUV ([2]; Thalamus): 0.71
TRV of SUV ([2]; Thalamus): 7.6
time of maximum total brain uptake (SUV) after injection ([2]; mice, i.v. bolus): around 1 min
metabolism in rats ([3]; plasma): rapidly metabolized
fraction metabolized [3, 6]: about 60%
parent compound left in plasma [3, 6]: 40.7 ± 9.0%
parent compound left in plasma ([3]; rats, 20 minutes after injection): 8.2 ± 2.6%
parent compound left in plasma ([3]; rats, 40 minutes after injection, n = 1): 3.7%
parent compound left in plasma ([3]; rats, 60 minutes after injection): 2.9 ± 1.5%
ICC of SUV ([4]; Brainstem): 0.58
TRV of SUV ([4]; Brainstem): 17.7
ICC of SUV ([4]; Cerebellum): 0.72
TRV of SUV ([4]; Cerebellum): 11.5
ICC of SUV ([4]; Cerebral cortex): 0.81
TRV of SUV ([4]; Cerebral cortex): 16.7
ICC of SUV ([4]; Hippocampus): 0.88
TRV of SUV ([4]; Hippocampus): 7.7 ± 3.5 and 7.7
ICC of SUV ([4]; Hypothalamus): 0.59
TRV of SUV ([4]; Hypothalamus): 20.4 ± 15.4 and 20.4
ICC of SUV ([4]; Midbrain): 0.86
TRV of SUV ([4]; Midbrain): 12.3
ICC of SUV ([4]; Striatum): 0.69
TRV of SUV ([4]; Striatum): 13.6
ICC of SUV ([4]; Thalamus): 0.71
TRV of SUV ([4]; Thalamus): 13.7
time of maximum total brain uptake (SUV) after injection ([4]; non-sampled rats, i.v. bolus): around 1 min
VT 2-TCM ([5]; Brainstem, rats): 56.7
VT Logan ([5]; Brainstem, rats): 49.7
VT 2-TCM ([5]; Cerebellum, rats): 63.6
VT Logan ([5]; Cerebellum, rats): 54.0
VT 2-TCM ([5]; Cerebral cortex, rats): 45.3
VT Logan ([5]; Cerebral cortex, rats): 41.5
VT 2-TCM ([5]; Hippocampus, rats): 41.1
VT Logan ([5]; Hippocampus, rats): 38.7
VT 2-TCM ([5]; Hypothalamus, rats): 58.3
VT Logan ([5]; Hypothalamus, rats): 51.3
VT 2-TCM ([5]; Midbrain, rats): 40.9
VT Logan ([5]; Midbrain, rats): 36.2
VT 2-TCM ([5]; Striatum, rats): 37.4
VT Logan ([5]; Striatum, rats): 34.5
VT 2-TCM ([5]; Thalamus, rats): 35.8
VT Logan ([5]; Thalamus, rats): 34.2
SUV of sampled rats higher than SUV of non-sampled rats ([5]; data not shown): about 30%
total (whole) brain VT, Logan analysis ([5]; rats, average): 42.9 ± 1.7 and 43.1
total brain VT, 2-TCM ([5]; rats, average): 47.3
correlation (r^2) between average VT (2-TCM) and average SUV [5, 7]: 0.92
correlation (r^2) between average VT (Logan) and average SUV [5, 7]: 0.94
Structure (SMILES): CC(=O)N(Cc1ccccc1O[11CH3])c1ccc(Oc2ccccc2)nc1 [[^11C]PBR28, N-acetyl-N-(2-[^11C]methoxybenzyl)-2-phenoxy-5-pyridinamine]
affinity for the TSPO (TSPO): high affinity
specific binding compared with [^11C]PK11195 (TSPO): higher specific binding

Structure (SMILES): CCC(C)N([11CH3])C(=O)c1cc2ccccc2c(-c2ccccc2Cl)n1 (centres unmarked) [[^11C]PK11195]
non-specific binding (TSPO): high level of non-specific binding
